Test results as given in publication PMC12679848, “Sulphonamide derivatives with a triazine core as novel inducers of apoptosis and pyroptosis in glioblastoma multiforme cells” (Journal of Enzyme Inhibition and Medicinal Chemistry, 2025).

Legend:
caspase 9 = experiment: Caspase 9 activation (FAM FLICA), A172; type: cell-based, human; details: A172, 1.5 μM, 24 h
Experimental: (§1) The activity of caspase 1, caspase 3/7, caspase 8, and caspase 9 was evaluated through the utilisation of FAM FLICA Caspase Assays (ImmunoChemistry Technologies, Bloomington, MN, USA), in accordance with the established protocols. Following treatment with the compounds, the cells were collected at a concentration of 1 × 10^6 cells/mL, washed twice with cold PBS, and resuspended in 290 μL of PBS. The subsequent step involved the addition of 10 μL of 30X FLICA solution, followed by incubation at 37 °C in the absence of light for one hour. Then, 2 ml of Apoptosis Wash Buffer was added, and the samples were washed twice. A 300 μL aliquot of each sample was transferred to a BD FACSCanto II flow cytometer (Becton Dickinson Biosciences, San Jose, CA, USA), where 10,000 events per sample were recorded. The resulting data was then analysed using FACSDiva software, version 6.1.3 (BD Biosciences Systems, San Jose, CA, USA).

[1] = Annexin V-FITC/PI apoptosis analysis, U-87 MG; type: cell-based, human; details: human, U-87 MG cells, read-out: Viable cells
Experimental: The level of apoptosis induction of the newly synthesised compounds MM118 and MM119 was determined using double staining with Annexin V-FITC and propidium iodide (AV/PI). This method enables the differentiation of four cell populations based on their state: viable cells, necrotic cells, cells in early apoptosis, and late apoptosis. The compounds were analysed on A172 and U-87 MG human glioblastoma multiforme cell lines using concentrations of 1 μM and 1.5 μM over a 24-h exposure period.
The impact of apoptosis induction by the tested compounds at concentrations of 1 μM and 1.5 μM, as well as by temozolomide at 1.5 μM, was evaluated through annexin V-FITC and propidium iodide (PI) staining with the Apoptosis Detection Kit II (BD Biosciences, San Diego, CA, USA). The glioblastoma cell lines A172 and U-87 MG were then deprived of medium and washed several times with cold phosphate-buffered saline (PBS) solution. The cell suspension was then prepared in the binding buffer provided in the kit at a concentration of 1 × 10^6 cells/mL. From each sample, 100 μL of the cell suspension was transferred to tubes and subsequently treated with 5 μL of Annexin V-FITC and 5 μL of propidium iodide (PI). The tubes were then incubated for 15 min at room temperature in the dark. Following the incubation period, 400 μL of binding buffer was added to each sample, after which the samples were immediately analysed using a BD FACSCanto II flow cytometer (Becton Dickinson Biosciences, San Jose, CA, USA), with 10,000 events recorded per sample. The results were then analysed using FACSDiva Software Version 6.1.3 (BD Biosciences Systems, San Jose, CA, USA).

caspase 3/7 [2] = experiment: Caspase 3/7 activation (FAM FLICA), A172; type: cell-based, human; details: A172, 1.5 μM, 24 h
Experimental: as §1

C8-D1A = experiment: MTT assay, C8-D1A astrocytes; type: cell-based; details: C8-D1A mouse astrocytes, 24 h of incubation; read-out: IC50 values ± SEM, MTT assay
Experimental: (§2) Human glioblastoma cell lines (A172 CRL-1620™, U-87 MG HTB-14™, U-118 MG HTB-15™, T98G CRL-1690™) and the mouse astrocyte cell line (C8-D1A CRL-2541™) were obtained from the American Type Culture Collection (ATCC, Manassas, VA, USA). The cell lines were cultured in complete medium: DMEM (Corning, Kennebunk, ME, USA) for C8-D1A and T98G, and EMEM (ATCC, Manassas, VA, USA) for A172, U-87 MG, U118MG. The media were supplemented with 10% foetal bovine serum (Eurx, Gdansk, Poland) and 1% penicillin-streptomycin solution (Corning, Kennebunk, ME, USA). Cells were cultured in cell culture flasks (Sarstedt, Numbrecht, Germany) at 37 °C in 5% CO2. For experiments, cells were washed with phosphate-buffered saline without calcium and magnesium (Corning, Kennebunk, ME, USA) and treated with 0.05% trypsin and 0.02% EDTA (Corning, Kennebunk, ME, USA). Cells were counted using a Sceptre 3.0 cell counter (Merck Millipore, Burlington, MA, USA) prior to seeding into plates. For 6-well plates, 5 x 10^5 cells/mL were seeded, while for 96-well plates (Sarstedt, Numbrecht, Germany), 1 x 10^5 cells/mL were seeded in 100 μL of the medium.
(§3) The cell lines were seeded in 96-well plates and cultured according to the methodology described in the previous section. Cells were then treated with the novel derivatives MM118 and MM119 and the reference compound temozolomide (TMZ) (Sigma-Aldrich, St. Louis, MO, USA) at concentrations of 0.1, 0.25, 0.5, 1.0, 2.5, 5.0, and 10.0 μM for 24 h. The MTT assay was performed using a solution of 3–(4,5-dimethyl-2-thiazolyl)-2,5-diphenyl-2H-tetrazolium bromide (Sigma-Aldrich, St. Louis, MO, USA) at a concentration of 5 mg/mL in phosphate-buffered saline without calcium and magnesium (Corning, Kennebunk, ME, USA). After 24 h incubation with test compounds, 10 μL MTT solution was added to each well, and cells were incubated for another 2 h at 37 °C. The cells were then lysed in 100 μL lysis buffer (25 mM HCl, 2% acetic acid, 3% DMF, and 5% SDS, adjusted to pH 4.7). Absorbance was measured at 570 nm using an Absorbance 96 microplate reader (Byonoy GmbH, Hamburg, Germany).

caspase 3/7 [3] = experiment: Caspase 3/7 activation (FAM FLICA), U-87 MG; type: cell-based, human; details: 1.5 μM, 24 h
Experimental: as §1

U-87 MG = experiment: LDH release assay, U-87 MG; type: cell-based, human; details: 1.5 μM, 24 h
Experimental: Analogous to the procedure described in the previous section, A172 and U-87 MG cells were cultured and plated in 96-well plates. The LDH-Cytotoxicity Assay Kit II (ab65393) (Abcam, Cambridge, UK) was used to assess cytotoxicity according to the manufacturer’s protocol. The test compounds MM118 and MM119 and the reference compound temozolomide (TMZ) were added to the cells at a concentration of 1.5 μM. After 24 h of exposure, the medium was collected, centrifuged and 10 μL of each sample was transferred to a new 96-well plate. In the next step, 100 μL of LDH Reaction Mix was added to each well and incubated for 30 min at room temperature. Absorbance was measured at 450 nm using an Absorbance 96 microplate reader (Byonoy GmbH, Hamburg, Germany). Cytotoxicity was calculated according to the formula provided by the manufacturer: Cytotoxicity (%) = ((Test Sample – Low Control)/(High Control – Low Control)) X 100, where Low Control - control without added compound, High Control with added 10 µL Lysis Buffer II.

A172 = experiment: MTT assay, A172; type: cell-based; details: Homo sapiens, A 172; A172, 24 h of incubation; read-out: IC50 values ± SEM, MTT assay
Experimental: as §2, §3

Compound: CCC(CO)NS(=O)(=O)c1ccc(-n2nc(C)c3nc4nnnn4nc32)cc1 (stereo in doubt) [MM118, N-(R)-(1-hydroxy-but-2-yl)-4-[7-methyl-5H-pyrazolo[4,3-e]tetrazolo[1,5-b][1]^,[2]^,[4]triazin-5-yl)]benzenesulfonamide]
- Active caspase 9 (cell population) (caspase 9): 31.55 ± 8.07%
- viability at 24 h, 1 µM [1]: 76.2%
- viability at 24 h, 1.5 µM [1]: 48.8 ± 3.9%
- Active caspase 3/7 (cell population) (caspase 3/7 [2]): 42.40 ± 12.59%
- IC50 (C8-D1A): 2190 ± 340 nM
- Active caspase 3/7 (cell population) (caspase 3/7 [3]): 60.08 ± 2.50%
- LDH release, cytotoxicity (U-87 MG): 24.27 ± 2.74%
- IC50 (A172): 889 ± 243 nM

Compound: CCC(CO)NS(=O)(=O)c1ccc(-n2nc(C)c3nc4nnnn4nc32)cc1 (stereo in doubt) [MM119, N-(S)-(1-hydroxy-but-2-yl)-4-[7-methyl-5H-pyrazolo[4,3-e]tetrazolo[1,5-b][1]^,[2]^,[4]triazin-5-yl)]benzenesulfonamide]
- Active caspase 9 (cell population) (caspase 9): 25.50 ± 6.04%
- viability at 24 h, 1 µM [1]: 85.4%
- viability at 24 h, 1.5 µM [1]: 50.5 ± 7.23%
- Active caspase 3/7 (cell population) (caspase 3/7 [2]): 25.60 ± 4.29%
- IC50 (C8-D1A): 2250 ± 294 nM
- Active caspase 3/7 (cell population) (caspase 3/7 [3]): 57.48 ± 19.68%
- LDH release, cytotoxicity (U-87 MG): 28.02 ± 5.27%
- IC50 (A172): 1240 ± 386 nM

Compound: Cn1nnc2c(C(N)=O)ncn2c1=O [TMZ, temozolomide, reference compound]
- Active caspase 9 (cell population) (caspase 9): no significant differences
- viability at 24 h, 1.5 µM [1]: 93.4%
- Active caspase 3/7 (cell population) (caspase 3/7 [2]): no significant differences
- IC50 (C8-D1A): > 10000 nM
- Active caspase 3/7 (cell population) (caspase 3/7 [3]): no significant differences
- LDH release, cytotoxicity (U-87 MG): 1.18 ± 0.25%
- IC50 (A172): > 10000 nM
